Measured values as given in patent US20260272964A1, “PENTAGALLOYL GLUCOSE DERIVED FROM SCHINUS PLANTS AND METHODS OF USE” (Emory University, priority 2020, published 2026).
Converted amounts (≈) assume the structure as drawn. “Also recorded” adds a separate entry of the source. Read-outs that look alike come from different tables or passages of the source.

Columns and labels:
Klebsiella pneumoniae = test: Growth inhibition of ESKAPE pathogens; assay type: cell-based
Procedure: (§1) PGG was also tested against a panel of other ESKAPE pathogens: Enterococcus faecium, Staphylococcus aureus, Klebsiella pneumoniae, Pseudomonas aeruginosa, and Enterobacter cloacae.

Pseudomonas aeruginosa = test: Growth inhibition of ESKAPE pathogens; assay type: cell-based
Procedure: as §1

Staphylococcus aureus = test: Growth inhibition of ESKAPE pathogens; assay type: cell-based; details: strain LAC
Procedure: as §1

Candida albicans = test: Growth inhibition of Candida species; assay type: cell-based
Procedure: (§2) The activity of PGG was tested for growth inhibition against two susceptible strains and 6 drug resistant strains from three Candida species (Table 2). […] The activity of PGG followed a dose-response curve against tested strains. Typically the strains tested had MICs less than 2 μg/mL. Candida glabrata (AR Bank #0335) yielded the highest MIC at 8 μg/mL.

Candida auris = test: Growth inhibition of Candida species; assay type: cell-based; details: Candidozyma auris
Procedure: as §2

Candida glabrata = test: Growth inhibition of Candida species; assay type: cell-based
Procedure: as §2

Candida parapsilosis = test: Growth inhibition of Candida species; assay type: cell-based; details: Lodderomyces parapsilosis
Procedure: as §2

Candida tropicalis = test: Growth inhibition of Candida species; assay type: cell-based; details: Table 2, strain AR Bank #0345
Procedure: as §2

[1] = Lactate dehydrogenase (LDH) cytotoxicity assay; assay type: cell-based, human; details: human; HaCaT, LDH assay
Source text: (§3) Immortalized human keratinocyte cells (HaCaTs) were used in a lactate dehydrogenase (LDH) assay to assess cytotoxicity by PGG and its parents.

[2] = system: Immortalized human keratinocyte cells (HaCaTs); test: Lactate dehydrogenase (LDH) cytotoxicity assay; assay type: cell-based; details: HaCaT IC50 over median IC50 for growth inhibition of A. baumannii
Source text: as §3

A. baumannii AB5075 [3] = test: Biofilm formation inhibition and biofilm eradication; assay type: cell-based, Acinetobacter baumannii
Source text: However, there was no significant difference between PGG and control with regards to biofilm promotion or inhibition at any concentration tested and no dose-response trend was noted.

A. baumannii [4] = test: Growth inhibition assays with media supplementation; assay type: cell-based, Acinetobacter baumannii
Procedure: (§4) PGG antibacterial activity may be attributed to its chelation of iron. One can use a colorimetric assay to quantify binding of free iron by PGG. One can perform bioassays with iron supplementation and 2,2′-dipyridyl, a known iron chelator, as a control. To elucidate potential mechanisms of action of PGG, A. baumannii growth inhibition and time-kill assays were carried out with various supplements in combination with PGG: 0.02% oleic acid, 0.02% polysorbate 80, 1 mM iron (II) sulfate, and 1 mM iron (III) sulfate. […] Furthermore, PGG combined with oleic acid, polysorbate 80, and iron (II) sulfate treatments had roughly tenfold, 100-fold, and 1,000-fold higher CFU/mL measurements, respectively, than PGG alone at the 24 h timepoint.

A. baumannii [5] = test: Time-kill assays with and without supplements; assay type: cell-based, Acinetobacter baumannii
Procedure: as §4

A. baumannii AB5075 [6] = test: Resistance studies (agar plates and 21-day serial passaging); assay type: cell-based, Acinetobacter baumannii
Procedure: To test for spontaneous development of resistance to PGG, A. baumannii AB5075 was inoculated on agar plates containing PGG at 0.5×MIC, 1×MIC, and 2×MIC (128, 256, and 512 μg/mL, respectively), and a control plate containing no PGG. […] Next, evolution of resistance was tested by serial passaging A. baumannii AB5075 for 21 days in the presence of a PGG gradient, using culture from the 0.5×MIC treatment for each subsequent passage. Serial passaging with a tetracycline gradient served as a control.

ESKAPE pathogens = test: Growth inhibition of a panel of ESKAPE pathogens (overall); assay type: cell-based
Procedure: as §1

[7] = in vivo; cited from earlier work

O=C(OC[C@H]1O[C@@H](OC(=O)c2cc(O)c(O)c(O)c2)[C@H](OC(=O)c2cc(O)c(O)c(O)c2)[C@@H](OC(=O)c2cc(O)c(O)c(O)c2)[C@@H]1OC(=O)c1cc(O)c(O)c(O)c1)c1cc(O)c(O)c(O)c1 [PGG, [(2R,3R,4S,5R,6S)-3,4,5,6-tetrakis[(3,4,5-trihydroxybenzoyl)oxy]oxan-2-yl]methyl 3,4,5-trihydroxybenzoate]
MIC (Klebsiella pneumoniae; read-out: PGG MIC): 256 µg/mL (≈ 272 µM)
IC50 (Klebsiella pneumoniae; strain NR-15410, read-out: PGG IC50): 8 µg/mL (≈ 8.5 µM)
MIC (Pseudomonas aeruginosa; P. aeruginosa, strain not given, read-out: MIC): 16 µg/mL (≈ 17 µM)
IC50 (Pseudomonas aeruginosa; strain AR Bank #0054, read-out: PGG IC50): 8 µg/mL (≈ 8.5 µM)
MIC (Pseudomonas aeruginosa; strain AR Bank #0054, read-out: PGG MIC): > 64 µg/mL
IC50 (Pseudomonas aeruginosa; strain AR Bank #0064, read-out: PGG IC50): 4 µg/mL (≈ 4.25 µM)
MIC (Pseudomonas aeruginosa; strain AR Bank #0064, read-out: PGG MIC): 16 µg/mL (≈ 17 µM)
IC50 (Pseudomonas aeruginosa; strain AR Bank #0090, read-out: PGG IC50): 4 µg/mL (≈ 4.25 µM)
MIC (Pseudomonas aeruginosa; strain AR Bank #0090, read-out: PGG MIC): > 64 µg/mL
IC50 (Pseudomonas aeruginosa; strain AR Bank #0092, read-out: PGG IC50): 4 µg/mL (≈ 4.25 µM)
MIC (Pseudomonas aeruginosa; strain AR Bank #0092, read-out: PGG MIC): > 64 µg/mL
IC50 (Pseudomonas aeruginosa; strain AR Bank #0094, read-out: PGG IC50): 8 µg/mL (≈ 8.5 µM)
MIC (Pseudomonas aeruginosa; strain AR Bank #0094, read-out: PGG MIC): 64 µg/mL (≈ 68 µM)
IC50 (Pseudomonas aeruginosa; strain AR Bank #0095, read-out: PGG IC50): 8 µg/mL (≈ 8.5 µM)
MIC (Pseudomonas aeruginosa; strain AR Bank #0095, read-out: PGG MIC): 64 µg/mL (≈ 68 µM)
IC50 (Pseudomonas aeruginosa; strain AR Bank #0100, read-out: PGG IC50): 8 µg/mL (≈ 8.5 µM)
MIC (Pseudomonas aeruginosa; strain AR Bank #0100, read-out: PGG MIC): > 64 µg/mL
IC50 (Pseudomonas aeruginosa; strain AR Bank #0103, read-out: PGG IC50): 4 µg/mL (≈ 4.25 µM)
MIC (Pseudomonas aeruginosa; strain AR Bank #0103, read-out: PGG MIC): 64 µg/mL (≈ 68 µM)
IC50 (Pseudomonas aeruginosa; strain AR Bank #0105, read-out: PGG IC50): 32 µg/mL (≈ 34 µM)
MIC (Pseudomonas aeruginosa; strain AR Bank #0105, read-out: PGG MIC): > 64 µg/mL
IC50 (Pseudomonas aeruginosa; strain AR Bank #0108, read-out: PGG IC50): 8 µg/mL (≈ 8.5 µM)
MIC (Pseudomonas aeruginosa; strain AR Bank #0108, read-out: PGG MIC): > 64 µg/mL
IC50 (Pseudomonas aeruginosa; strain AR Bank #0110, read-out: PGG IC50): 4 µg/mL (≈ 4.25 µM)
MIC (Pseudomonas aeruginosa; strain AR Bank #0110, read-out: PGG MIC): 64 µg/mL (≈ 68 µM)
IC50 (Pseudomonas aeruginosa; strain AR Bank #0111, read-out: PGG IC50): 4 µg/mL (≈ 4.25 µM)
MIC (Pseudomonas aeruginosa; strain AR Bank #0111, read-out: PGG MIC): 64 µg/mL (≈ 68 µM)
IC50 (Pseudomonas aeruginosa; strain PA01, read-out: PGG IC50): 8 µg/mL (≈ 8.5 µM)
MIC (Pseudomonas aeruginosa; strain PA01, read-out: PGG MIC): 16 µg/mL (≈ 17 µM)
IC50 (Staphylococcus aureus; read-out: PGG IC50): 16 µg/mL (≈ 17 µM)
MIC (Staphylococcus aureus; read-out: PGG MIC): 64 µg/mL (≈ 68 µM)
IC50 (Candida albicans; Candida albicans, Table 2, strain ARMH12 (Flc^R)): 0.5 µg/mL (≈ 0.532 µM)
MIC (Candida albicans; Candida albicans, Table 2, strain ARMH12 (Flc^R), read-out: MIC): 1 µg/mL (≈ 1.06 µM)
IC50 (Candida albicans; Candida albicans, Table 2, strain ATCC10231): 0.25 µg/mL (≈ 0.266 µM)
MIC (Candida albicans; Candida albicans, Table 2, strain ATCC10231, read-out: MIC): 0.5 µg/mL (≈ 0.532 µM)
IC50 (Candida albicans; Candida albicans, Table 3, strain ATCC90028): 1 µg/mL (≈ 1.06 µM)
MIC (Candida albicans; Candida albicans, Table 3, strain ATCC90028, read-out: MIC): 2 µg/mL (≈ 2.13 µM)
MIC (Candida albicans; Table 3, strain MH12): 1.0 µg/mL (≈ 1.06 µM)
MIC (Candida auris; Table 2, strain AR Bank #0390): 0.25 µg/mL (≈ 0.266 µM)
IC50 (Candida auris; Table 2, strain AR Bank #0381): 0.25 µg/mL (≈ 0.266 µM)
MIC (Candida auris; Table 2, strain AR Bank #0381): 0.5 µg/mL (≈ 0.532 µM)
IC50 (Candida glabrata; Nakaseomyces glabratus, Table 2, strain AR Bank #0325): 0.5 µg/mL (≈ 0.532 µM)
MIC (Candida glabrata; Nakaseomyces glabratus, Table 2, strain AR Bank #0325, read-out: MIC): 1 µg/mL (≈ 1.06 µM)
IC50 (Candida glabrata; Nakaseomyces glabratus, Table 3, strain AR Bank #0325): 0.5 µg/mL (≈ 0.532 µM)
MIC (Candida glabrata; Nakaseomyces glabratus, Table 3, strain AR Bank #0325, read-out: MIC): 1 µg/mL (≈ 1.06 µM)
IC50 (Candida glabrata; Nakaseomyces glabratus, Table 3, strain AR Bank #0326): 0.25 µg/mL (≈ 0.266 µM)
MIC (Candida glabrata; Nakaseomyces glabratus, Table 3, strain AR Bank #0326, read-out: MIC): 0.5 µg/mL (≈ 0.532 µM)
IC50 (Candida glabrata; Nakaseomyces glabratus, Table 3, strain AR Bank #0335): 2 µg/mL (≈ 2.13 µM)
MIC (Candida glabrata; Nakaseomyces glabratus, Table 3, strain AR Bank #0335, read-out: MIC): 8 µg/mL (≈ 8.5 µM)
MIC (Candida glabrata; Table 3, strain AR Bank #0335): 8.0 µg/mL (≈ 8.5 µM)
IC50 (Candida parapsilosis; Table 2, strain AR Bank #0337): 0.5 µg/mL (≈ 0.532 µM)
MIC (Candida parapsilosis; Table 2, strain AR Bank #0337): 1 µg/mL (≈ 1.06 µM)
IC50 (Candida parapsilosis; Table 3, strain AR Bank #0337): 1 µg/mL (≈ 1.06 µM)
MIC (Candida parapsilosis; Table 3, strain AR Bank #0337): 1 µg/mL (≈ 1.06 µM)
IC50 (Candida parapsilosis; Table 3, strain AR Bank #0338): 0.5 µg/mL (≈ 0.532 µM)
MIC (Candida parapsilosis; Table 3, strain AR Bank #0338): 1 µg/mL (≈ 1.06 µM)
IC50 (Candida parapsilosis; Table 3, strain AR Bank #0339): 1 µg/mL (≈ 1.06 µM)
MIC (Candida parapsilosis; Table 3, strain AR Bank #0339): 2 µg/mL (≈ 2.13 µM)
IC50 (Candida tropicalis): 0.25 µg/mL (≈ 0.266 µM)
MIC (Candida tropicalis): 1 µg/mL (≈ 1.06 µM)
IC50 [1]: 256 µg/mL (≈ 272 µM)
therapeutic index [2]: 32
biofilm formation inhibition (A. baumannii AB5075 [3]; AB5075, 0.5-64 μg/mL (sub-MIC)): did not exhibit any antibiofilm activity
biofilm eradication (A. baumannii AB5075 [3]; AB5075, 2-256 μg/mL): did not exhibit any antibiofilm activity
biofilm formation relative to vehicle (DMSO) control (A. baumannii AB5075 [3]; AB5075, 8-64 μg/mL, not significant): mild promotion of biofilm formation
change of growth inhibition on supplementation (A. baumannii [4]; PGG 256-2 μg/mL with 1 mM iron (II) sulfate): attenuated growth inhibition
change of growth inhibition on supplementation (A. baumannii [4]; PGG 256-2 μg/mL with 1 mM iron (III) sulfate): attenuated growth inhibition
change of growth inhibition on supplementation (A. baumannii [4]; PGG 256-2 μg/mL with 0.02% oleic acid): no change in activity
change of growth inhibition on supplementation (A. baumannii [4]; PGG 256-2 μg/mL with 0.02% polysorbate 80): attenuated growth inhibition
kind of activity in time-kill (CFU/mL curve) (A. baumannii [5]; PGG alone, 256 μg/mL): bacteriostatic rather than bactericidal
CFU/mL relative to PGG alone (A. baumannii [5]; PGG combined with iron (II) sulfate, 24 h timepoint): ~1,000 fold
CFU/mL relative to PGG alone (A. baumannii [5]; PGG combined with oleic acid, 24 h timepoint): roughly tenfold
CFU/mL relative to PGG alone (A. baumannii [5]; PGG combined with polysorbate 80, 24 h timepoint): ~100 fold
evolution of resistance on serial passaging (A. baumannii AB5075 [6]; A. baumannii AB5075, 21 daily passages from the 0.5×MIC treatment): did not produce any resistant mutants; also recorded: remained stable; also recorded: did not stimulate any spontaneous resistance
spontaneous development of resistance (colonies on agar plates) (A. baumannii AB5075 [6]; A. baumannii AB5075, agar with 128, 256 and 512 μg/mL, 24 h): no colonies appeared
MIC (A. baumannii AB5075 [6]; Acinetobacter baumannii, AB5075, read-out: Base MIC): 256 µg/mL (≈ 272 µM)
concentrations with activity against a wide range of pathogenic bacteria (ESKAPE pathogens): ≥ 64 µg/mL
oral bioavailability [7]: low oral bioavailability
